Experimental data from patent publication US20090029856A1, “Hinokitiol As A Plant Pesticide” (priority 2007, published 2009).
Where two headings read alike, the source gives them in different places.

How the values were obtained:
[1] = test system: 2-week-old cucumber plants; conditions: in vivo
Description: Ethoxylated fatty esters (e.g., polyethylene 20 sorbitan monooleate, polyethylene 20 sorbitan monolaurate), ethoxylated alcohols (e.g., Genapol UD-80, UD 110, O-100 and O-200, Clariant Corporation) were chosen for phytotoxic screening in this study. […] These formulations were diluted 100 times with tap water and then sprayed on 2-week-old cucumber plants. […] Precipitation would happen to Oxylignin (sodium salt) when pH reached to 8.0 and then increased with pH.

[2] = Sun exposure experiment in vials, HPLC analysis of hinokitiol; type: physicochemical
Description: HPLC analysis: HPLC systems include waters 2695 separation modules with auto sampler, waters 2996 photodiode array detector, Masslynx software and Sunfire™ C18 column (5 μm, 4.6×150 mm). […] Gradient mobile phase was adopted. […] Hinokitiol complex with citric acid was monitored at 320 nm. The column temperature was kept at 30° C. during the experiment. […] The vials were put on a rack. […] After sunlight exposure, rack and vials were immediately stored at 4° C. or subsamples were taken for HPLC analysis. Visual observation was recorded before subsamples were taken. Vials were vortexed very well before subsamples were taken. Triplicates were carried out for each sample. All sun light exposure in the later studies was the same unless stated. Temperature in all this studies varied between 75 to 95° F.

Degradation of hinokitiol (%) [2] [%]	degradation of hinokitiol in the formulation compared with other UV protection agents [2]	Degradation of hinokitiol (%) ([2]; pH 7.4)	Degradation of hinokitiol (%) ([2]; pH 8.29)	Degradation of hinokitiol (%) ([2]; pH 9.61)	Substance	phytotoxicity on 2-week-old cucumber plants ([1]; pH 10)	phytotoxicity (shown or not) [1]
40 ± 1	much slower	40 ± 3	30 ± 2	21 ± 4	Humic acid	no obvious phytotoxicity	–
–	–	–	–	–	polyethylene 20 sorbitan monooleate	–	did not show any obvious phytotoxicity
